Experimental data reported in PubChem BioAssay AID1918954 (Molecular Pharmacology Branch, DTP, NCI, 2023).
Several values for one entry are separate records, joined by “and”; a condition that tells them apart may be missing. Equal values may be shown once.

Test system: MDA-MB-468 complex spheroids with HUVEC/MSC, viability
Experiment: Anticancer human tumor MDA-MB-468 cell line growth inhibition;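 note: spheroids exposed to agents for seven days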;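 for viability, T/C: 100% = DMSO vehicle control viability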
Conditions: for viability, T/C: stronger effect = lower value
How it was run: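 Complex spheroids of tumor cells with HUVEC and human MSCs, exposed to iadademstat combined with other agents. Each agent tested in half-log steps from near clinical Cmax (else 10 microM top), DMSO ≤0.25%.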

[1] = curve of first compound, second compound 0.1 µM
[2] = curve of first compound, second compound 0.316 µM
[3] = curve of first compound, second compound 1 µM
[4] = curve of first compound, second compound 3.16 µM
[5] = curve of first compound, second compound 10 µM
[6] = second compound 0.1 µM, first compound 0.0316 µM
[7] = second compound 0.1 µM, first compound 0.1 µM
[8] = second compound 0.316 µM, first compound 0.0316 µM
[9] = second compound 0.316 µM, first compound 0.1 µM
[10] = second compound 1 µM, first compound 0.0316 µM
[11] = second compound 1 µM, first compound 0.1 µM
[12] = second compound 3.16 µM, first compound 0.0316 µM
[13] = second compound 3.16 µM, first compound 0.1 µM
[14] = second compound 10 µM, first compound 0.0316 µM
[15] = second compound 10 µM, first compound 0.1 µM

Nc1ncn(C2CC(O)C(CO)S2)c(=O)n1 (configuration not stated) + NC1CC1c1ccc(-c2cccc(O)c2)cc1
IC50 [1]: 21.2 nM
IC50 [2]: 18.9 nM
IC50 [3]: 11.8 nM
IC50 [4]: 10.7 nM
IC50 [5]: 3.83 nM
viability, T/C (second compound 0.1 µM, first compound 0.000949 µM): 104%
viability, T/C (second compound 0.1 µM, first compound 0.003 µM): 87.9%
viability, T/C (second compound 0.1 µM, first compound 0.00949 µM): 56.7%
viability, T/C (second compound 0.1 µM, first compound 0.03 µM): 47.2%
viability, T/C (second compound 0.1 µM, first compound 0.0949 µM): 31.8%
viability, T/C (second compound 0.1 µM, first compound 0.3 µM): 19.5%
viability, T/C (second compound 0.316 µM, first compound 0.000949 µM): 84%
viability, T/C (second compound 0.316 µM, first compound 0.003 µM): 77.1%
viability, T/C (second compound 0.316 µM, first compound 0.00949 µM): 57.8%
viability, T/C (second compound 0.316 µM, first compound 0.03 µM): 45.1%
viability, T/C (second compound 0.316 µM, first compound 0.0949 µM): 26.3%
viability, T/C (second compound 0.316 µM, first compound 0.3 µM): 16.4%
viability, T/C (second compound 1 µM, first compound 0.000949 µM): 80.8%
viability, T/C (second compound 1 µM, first compound 0.003 µM): 76%
viability, T/C (second compound 1 µM, first compound 0.00949 µM): 49.6%
viability, T/C (second compound 1 µM, first compound 0.03 µM): 35.4%
viability, T/C (second compound 1 µM, first compound 0.0949 µM): 23.9%
viability, T/C (second compound 1 µM, first compound 0.3 µM): 13.9%
viability, T/C (second compound 3.16 µM, first compound 0.000949 µM): 90.4%
viability, T/C (second compound 3.16 µM, first compound 0.003 µM): 81.3%
viability, T/C (second compound 3.16 µM, first compound 0.00949 µM): 47.7%
viability, T/C (second compound 3.16 µM, first compound 0.03 µM): 33%
viability, T/C (second compound 3.16 µM, first compound 0.0949 µM): 22.5%
viability, T/C (second compound 3.16 µM, first compound 0.3 µM): 13.5%
viability, T/C (second compound 10 µM, first compound 0.000949 µM): 62.5%
viability, T/C (second compound 10 µM, first compound 0.003 µM): 53.6%
viability, T/C (second compound 10 µM, first compound 0.00949 µM): 39.1%
viability, T/C (second compound 10 µM, first compound 0.03 µM): 29.9%
viability, T/C (second compound 10 µM, first compound 0.0949 µM): 19.8%
viability, T/C (second compound 10 µM, first compound 0.3 µM): 13.8%

CC1(C)CCC(CN2CCN(c3ccc(C(=O)NS(=O)(=O)c4ccc(NCC5CCOCC5)c([N+](=O)[O-])c4)c(Oc4cnc5[nH]ccc5c4)c3)CC2)=C(c2ccc(Cl)cc2)C1 + NC1CC1c1ccc(-c2cccc(O)c2)cc1
IC50 [1]: 1820 nM
IC50 [2]: 1700 nM
IC50 [3]: 1830 nM
IC50 [4]: 1550 nM
IC50 [5]: 509 nM
viability, T/C [6]: 106%
viability, T/C [7]: 90.4%
viability, T/C (second compound 0.1 µM, first compound 0.316 µM): 96.9%
viability, T/C (second compound 0.1 µM, first compound 1 µM): 72.7%
viability, T/C (second compound 0.1 µM, first compound 3.16 µM): 29%
viability, T/C (second compound 0.1 µM, first compound 10 µM): 2.15%
viability, T/C [8]: 90.3%
viability, T/C [9]: 108%
viability, T/C (second compound 0.316 µM, first compound 0.316 µM): 94.4%
viability, T/C (second compound 0.316 µM, first compound 1 µM): 64.7%
viability, T/C (second compound 0.316 µM, first compound 3.16 µM): 30.9%
viability, T/C (second compound 0.316 µM, first compound 10 µM): 1.99%
viability, T/C [10]: 93.7%
viability, T/C [11]: 101%
viability, T/C (second compound 1 µM, first compound 0.316 µM): 88.6%
viability, T/C (second compound 1 µM, first compound 1 µM): 75.8%
viability, T/C (second compound 1 µM, first compound 3.16 µM): 27.4%
viability, T/C (second compound 1 µM, first compound 10 µM): 2.31%
viability, T/C [12]: 91.2%
viability, T/C [13]: 83.1%
viability, T/C (second compound 3.16 µM, first compound 0.316 µM): 92.1%
viability, T/C (second compound 3.16 µM, first compound 1 µM): 64%
viability, T/C (second compound 3.16 µM, first compound 3.16 µM): 24.5%
viability, T/C (second compound 3.16 µM, first compound 10 µM): 1.95%
viability, T/C [14]: 78.5%
viability, T/C [15]: 67.7%
viability, T/C (second compound 10 µM, first compound 0.316 µM): 59.9%
viability, T/C (second compound 10 µM, first compound 1 µM): 38.5%
viability, T/C (second compound 10 µM, first compound 3.16 µM): 16.8%
viability, T/C (second compound 10 µM, first compound 10 µM): 1.82%

CC[C@@]1(O)C(=O)OCc2c1cc1n(c2=O)Cc2cc3c(CN(C)C)c(O)ccc3nc2-1 + NC1CC1c1ccc(-c2cccc(O)c2)cc1
IC50 [1]: 1.32 nM
IC50 [2]: 1.2 nM
IC50 [3]: 1.15 nM
IC50 [4]: 1.05 nM
IC50 [5]: 0.731 nM
viability, T/C (second compound 0.1 µM, first compound 0.000316 µM): 95.6%
viability, T/C (second compound 0.1 µM, first compound 0.001 µM): 61.8%
viability, T/C (second compound 0.1 µM, first compound 0.00316 µM): 12.6%
viability, T/C (second compound 0.1 µM, first compound 0.01 µM): 7.83%
viability, T/C [6]: 4.57%
viability, T/C [7]: 4.01%
viability, T/C (second compound 0.316 µM, first compound 0.000316 µM): 97.4%
viability, T/C (second compound 0.316 µM, first compound 0.001 µM): 57.1%
viability, T/C (second compound 0.316 µM, first compound 0.00316 µM): 12.2%
viability, T/C (second compound 0.316 µM, first compound 0.01 µM): 7.26%
viability, T/C [8]: 4.33%
viability, T/C [9]: 3.89%
viability, T/C (second compound 1 µM, first compound 0.000316 µM): 90.9%
viability, T/C (second compound 1 µM, first compound 0.001 µM): 55.3%
viability, T/C (second compound 1 µM, first compound 0.00316 µM): 12.1%
viability, T/C (second compound 1 µM, first compound 0.01 µM): 7.25%
viability, T/C [10]: 4.02%
viability, T/C [11]: 3.43%
viability, T/C (second compound 3.16 µM, first compound 0.000316 µM): 98%
viability, T/C (second compound 3.16 µM, first compound 0.001 µM): 51.8%
viability, T/C (second compound 3.16 µM, first compound 0.00316 µM): 12.3%
viability, T/C (second compound 3.16 µM, first compound 0.01 µM): 6.86%
viability, T/C [12]: 3.9%
viability, T/C [13]: 2.97%
viability, T/C (second compound 10 µM, first compound 0.000316 µM): 67.6%
viability, T/C (second compound 10 µM, first compound 0.001 µM): 43.5%
viability, T/C (second compound 10 µM, first compound 0.00316 µM): 13.9%
viability, T/C (second compound 10 µM, first compound 0.01 µM): 7.24%
viability, T/C [14]: 4.44%
viability, T/C [15]: 3.53%

CC1COCCN1c1cc(-c2ccnn2C)c2ccnc(-c3ccn[nH]3)c2n1 (configuration not stated)
viability, T/C (compound 0.00316 µM): 81.2% and 38.9%
viability, T/C (compound 0.01 µM): 54.9% and 37.5%
viability, T/C (compound 0.0316 µM): 35.7% and 19.3%
viability, T/C (compound 0.1 µM): 27% and 8.03%
viability, T/C (compound 0.316 µM): 15.8% and 5.94%
viability, T/C (compound 1 µM): 12.2% and 2.35%
IC50 (curve of compound): 13.7 nM and < 3.16 nM
